Experimental data published in patent US10118930B2, “Piperidinylpyrazolopyrimidinones and their use” (BAYER PHARMA AKTIENGESELLSCHAFT, priority 2015, dated 2018).
Where a name gives a salt, the structure may show the parent alone.

Tested on: clot lysis (fibrinolysis) in diluted human citrated plasma, tPA-induced
Experiment: Plasma-based clot lysis assay (5%)
Assay type: biochemical
Details: human citrated platelet-poor plasma 5%, fibrinogen 3 μM, CaCl2 10 mM, tPA 0.2 nM, 37° C., OD at 405 nm
Summary of the method: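 Clot formation and breakdown triggered by CaCl2 (10 mM final) plus tPA (0.2 nM final) at 37° C, in 5% diluted human plasma supplemented with 3 μM fibrinogen (HEPES/NaCl/Brij buffer, pH 7). IC50 obtained from time courses relative to a blank control.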

IC50 [nM] | Compound
44 | O=c1cc(C2CCNCC2)n2ncc(-c3nc(-c4cc(Cl)cc(Cl)c4)no3)c2[nH]1 [Example 151, 3-[3-(3,5-Dichlorophenyl)-1,2,4-oxadiazol-5-yl]-7-(piperidin-4-yl)pyrazolo[1,5-a]pyrimidin-5 (4H)-one hydrochloride]
110 | O=C1CCN(C(=O)c2cnn3c(C4CCNCC4)cc(=O)[nH]c23)CCN1 [Example 100, 3-[(5-oxo-1,4-diazepan-1-yl)carbonyl]-7-(piperidin-4-yl)pyrazolo[1,5-a]pyrimidin-5(4H)-one hydrochloride]
14 | CC(C)CNC(=O)c1cnn2c(C3CCNCC3)cc(=O)[nH]c12 [Example 21, N-Isobutyl-5-oxo-7-(piperidin-4-yl)-4,5-dihydropyrazolo[1,5-a]pyrimidine-3-carboxamide hydrochloride]
34 | O=c1cc(C2CCNCC2)n2ncc(-c3nnc(CCN4CCOCC4)o3)c2[nH]1 [Example 282, 3-{5-[2-(morpholin-4-yl)ethyl]-1,3,4-oxadiazol-2-yl}-7-(piperidin-4-yl)pyrazolo[1,5-a]pyrimidin-5(4H)-one hydrochloride]
45 | O=c1cc(C2CCNCC2)n2ncc(-c3nc(-c4c(Cl)cc(C(F)(F)F)cc4Cl)no3)c2[nH]1 [Example 150, 3-{3-[2,6-Dichloro-4-(trifluoromethyl)phenyl]-1,2,4-oxadiazol-5-yl}-7-(piperidin-4-yl)pyrazolo[1,5-a]pyrimidin-5(4H)-one hydrochloride]
29 | Cc1nn2c(C3CCNCC3)cc(=O)[nH]c2c1C(=O)N(C)Cc1ccccn1 [Example 428, N,2-dimethyl-5-oxo-7-(piperidin-4-yl)-N-(pyridin-2-ylmethyl)-4,5-dihydro-pyrazolo[1,5-a] pyrimidine-3-carboxamide hydrochloride]
40 | Cc1nn2c(C3CCNCC3)cc(=O)[nH]c2c1C(=O)OCC(F)F [Example 465, 2,2-difluoroethyl 2-methyl-5-oxo-7-(piperidin-4-yl)-4,5-dihydropyrazolo[1,5-a]pyrimidine-3-carboxylate hydrochloride]
8 | O=C(c1cnn2c(C3CCNCC3)cc(=O)[nH]c12)C1CC1 [Example 453, 3-(cyclopropylcarbonyl)-7-(piperidin-4-yl)pyrazolo[1,5-a]pyrimidin-5(4H)-one hydrochloride]
23 | Cc1nn2c(C3CCNCC3)cc(=O)[nH]c2c1-c1nc(C(C)(C)C)no1 [Example 296, 3-(3-tert-butyl-1,2,4-oxadiazol-5-yl)-2-methyl-7-(piperidin-4-yl)pyrazolo[1,5-a]pyrimidin-5(4H)-one hydrochloride]
43 | O=c1cc(C2CCNCC2)n2ncc(-c3nc(-c4ccc(C(F)(F)F)cc4Cl)no3)c2[nH]1 [Example 136, 3-{3-[2-Chloro-4-(trifluoromethyl)phenyl]-1,2,4-oxadiazol-5-yl}-7-(piperidin-4-yl)pyrazolo[1,5-a]pyrimidin-5(4H)-one hydrochloride]
16 | N#Cc1ccccc1-c1cnn2c(C3CCNCC3)cc(=O)[nH]c12 [Example 49, 2-[5-Oxo-7-(piperidin-4-yl)-4,5-dihydropyrazolo[1,5-a]pyrimidin-3-yl]benzonitrile trifluoroacetate]
120 | O=c1cc(C2CCNCC2)n2ncc(CN3CCS(=O)(=O)CC3)c2[nH]1 [Example 345, 3-[(1,1-dioxidothiomorpholin-4-yl)methyl]-7-(piperidin-4-yl)pyrazolo[1,5-a]pyrimidin-5 (4H)-one hydrochloride]
21 | CCC(c1ccc(OC)cc1)c1nc(-c2cnn3c(C4CCNCC4)cc(=O)[nH]c23)no1 (racemic) [Example 241, 3-{5-[rac-1-(4-methoxyphenyl)propyl]-1,2,4-oxadiazol-3-yl}-7-(piperidin-4-yl)pyrazolo[1,5-a]pyrimidin-5(4H)-one hydrochloride]
48 | CN(CC1CC1)C(=O)c1cnn2c(C3CCNCC3)cc(=O)[nH]c12 [Example 78, N-(cyclopropylmethyl)-N-methyl-5-oxo-7-(piperidin-4-yl)-4,5-dihydropyrazolo[1,5-a]pyrimidine-3-carboxamide]
71 | O=c1cc(C2CCNCC2)n2ncc(-c3noc(-c4ccc(C(F)(F)F)cc4Cl)n3)c2[nH]1 [Example 232, 3-{5-[2-chloro-4-(trifluoromethyl)phenyl]-1,2,4-oxadiazol-3-yl}-7-(piperidin-4-yl)pyrazolo[1,5-a]pyrimidin-5(4H)-one hydrochloride]
20 | CC(C)(c1nnc(-c2cnn3c(C4CCNCC4)cc(=O)[nH]c23)o1)n1cncn1 [Example 275, 7-(piperidin-4-yl)-3-{5-[2-(1H-1,2,4-triazol-1-yl)propan-2-yl]-1,3,4-oxadiazol-2-yl}pyrazolo[1,5-a]pyrimidin-5(4H)-one hydrochloride]
26 | O=c1cc(C2CCNCC2)n2ncc(-c3noc(C=C4CCCC4)n3)c2[nH]1 [Example 384, 3-[5-(Cyclopentylidenemethyl)-1,2,4-oxadiazol-3-yl]-7-(piperidin-4-yl)pyrazolo[1,5-a]pyrimidin-5 (4H)-one hydrochloride]
21 | O=c1cc(C2CCNCC2)n2ncc(-c3ccc(C(F)(F)F)cc3)c2[nH]1 [Example 57, 7-(Piperidin-4-yl)-3-[4-(trifluoromethyl)phenyl]pyrazolo[1,5-a]pyrimidin-5(4H)-one hydrochloride]
25 | Cc1nn2c(C3CCNCC3)cc(=O)[nH]c2c1-c1nc(Cc2ccc(F)cc2)no1 [Example 299, 3-[3-(4-fluorobenzyl)-1,2,4-oxadiazol-5-yl]-2-methyl-7-(piperidin-4-yl)pyrazolo[1,5-a]pyrimidin-5(4H)-one hydrochloride]
58 | NCc1noc(-c2cnn3c(C4CCNCC4)cc(=O)[nH]c23)n1 [Example 212, 3-[3-(aminomethyl)-1,2,4-oxadiazol-5-yl]-7-(piperidin-4-yl)pyrazolo[1,5-a]pyrimidin-5 (4H)-one hydrochloride]
17 | Cc1ccccc1CNC(=O)c1cnn2c(C3CCNCC3)cc(=O)[nH]c12 [Example 86, N-(2-methylbenzyl)-5-oxo-7-(piperidin-4-yl)-4,5-dihydropyrazolo[1,5-a]pyrimidine-3-carboxamide hydrochloride]
29 | COc1ccccc1Cc1nnc(-c2cnn3c(C4CCNCC4)cc(=O)[nH]c23)o1 [Example 280, 3-[5-(2-methoxybenzyl)-1,3,4-oxadiazol-2-yl]-7-(piperidin-4-yl)pyrazolo[1,5-a]pyrimidin-5(4H)-one hydrochloride]
200 | CC(C)N1CCC(c2noc(-c3cnn4c(C5CCNCC5)cc(=O)[nH]c34)n2)CC1 [Example 264, 7-(piperidin-4-yl)-3-{3-[1-(propan-2-yl)piperidin-4-yl]-1,2,4-oxadiazol-5-yl}pyrazolo[1,5-a]pyrimidin-5(4H)-one hydrochloride]
28 | CC1(c2nc(-c3cnn4c(C5CCNCC5)cc(=O)[nH]c34)no2)CCCC1 (racemic) [Example 386, Rac-3-[5-(1-Methylcyclopentyl)-1,2,4-oxadiazol-3-yl]-7-(piperidin-4-yl)pyrazolo[1,5-a]pyrimidin-5(4H)-one hydrochloride]

Compound | IC50 [nM]
CC(=O)c1cnn2c(C3CCNCC3)cc(=O)[nH]c12 [Example 370, 3-acetyl-7-(piperidin-4-yl)pyrazolo[1,5-a]pyrimidin-5(4H)-one hydrochloride] | 36
